Assay results reported in US20100240617A1, “BICYCLIC SPHINGOSINE 1-PHOSPHATE ANALOGS” (University of Virginia Patent Foundation, priority 2007, published 2010).

Tested on: lymphocytes in blood
Assay: lymphopenia assay
Type: in vivo
Settings: mice, 8 doses, 3 mice per dose
Protocol: Compounds (e.g., primary alcohols such as compound VIII) are dissolved in 2% hydroxypropyl beta-cyclodextrin and introduced into groups of mice by oral gavage at doses from 0.01, 1.0 and 10 mg/kg body weight. After 24 hours and 48 hours, the mice are lightly anesthetized and ca. 0.1 ml of blood is drawn from the orbital sinus. The number of lymphocytes (in thousands per microliter of blood; normal is 4-11) is determined using a Hemavet blood analyzer. There are three mice/group, the strain was mixed sv129×C57BL/6. Active compounds (e.g., compound VIII-C and compound VIII-D) are dissolved in acidified DMSO at 20 mM, and diluted 1:20 into 2% hydroxypropyl beta-cyclodextrin in water with mixing. […]

Structure (SMILES)	ED50 in the lymphopenia assay [mg/kg]
CCCCCCCCc1ccc2c(c1)CCC(C(N)(CO)CO)C2 (single isomer, unassigned; (-)) [VIII-B, (−)-2-Amino-2-(6-octyl-1,2,3,4-tetrahydro-naphthalen-2-yl)-propane-1,3-diol]	2
CCCCCCCCc1ccc2c(c1)CCC(C(N)(CO)CO)C2 (single isomer, unassigned; (+)) [VIII-A, (+)-2-Amino-2-(6-octyl-1,2,3,4-tetrahydro-naphthalen-2-yl)-propane-1,3-diol]	0.2
